According to US20230391781A1, “MALT1 MODULATORS AND USES THEREOF” (Rheos Medicines, Inc., priority 2020, published 2023):
Values after ≈ are worked out from the molar mass of the structure shown.

Tests used:
full length MALT1 = full length MALT1 (Homo sapiens (Human), UniProt Q9UDY8); assay: MALT1 Biochemical Assay; details: 15 nM enzyme, 30 μM peptide substrate Ac-Leu-Arg-Ser-Arg-Rh110-dPro, 30 min pre-incubation, 60 min reaction; mean value if tested more than once
Method in brief: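 Full-length human MALT1 was pre-incubated with compound for 30 min, then cleaved a fluorogenic peptide for 60 min in 50 mM Hepes pH 7.5 with 0.8 M sodium citrate and 1 mM DTT. The reaction was quenched with 10 mM iodoacetate and fluorescence was read at 485/520 nm. IC50 came from four-parameter logistic fits of percent inhibition.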

[1] = tested on: IL-2 in Jurkat (ATCC, clone E6.1) cells stimulated with anti-CD3/28/2; assay: Jurkat IL-2 Assay; assay type: cell-based; details: Homo sapiens; IL-2 inhibition, Jurkat cells, 30 min compound then anti-CD3/28/2 stimulation for 24 hours; mean value if tested more than once; read-out: IC50
Method in brief: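 Jurkat E6.1 T cells in RPMI/10% FBS (below passage 25) were preincubated with a compound dose-response for 30 min, then stimulated with soluble anti-CD3/28/2 for 24 h. IL-2 in the supernatant was measured by MSD immunoassay and viability by CellTiter-Glo luminescence. IC50 came from a 4-parameter fit, reported as ranges, with the mean used where tested repeatedly.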

[2] = High Throughput Dialysis (HTD) Human Plasma Protein Binding Assay; assay type: in vitro ADME; details: pooled human plasma, pH 7.4, equilibrium dialysis, 37° C., read-out: Human PPB (% Unbound)
Method: Human plasma protein binding of various compounds of formula (I) were evaluated using the equilibrium dialysis method described herein.
The dialysis membrane strips (HTD % a/b, catalog number 1101, HTDialysis LLC, Gales Ferry, CT, USA) were soaked in ultra-pure water at room temperature for approximately 1 hour. Each membrane strip containing 2 membranes was separated and soaked in 20:80 ethanol/water (v/v) for approximately 20 minutes, after which they were ready for use or were stored in the solution at 2-8° C. for up to a month. Prior to the experiment, the membrane was rinsed three times and soaked for 20 minutes in ultra-pure water.
On the day of experiment, the human plasma (BiolVT, catalog number […], sodium heparin or EDTA-K2 anticoagulant, multiple individuals pooled) was thawed by running under cold tap water and centrifuged at 3220 rpm for 5 minutes to remove any clots. The pH value of the resulting plasma was confirmed to be 7.0-8.0.
The test compounds and warfarin control (Stru Chem, catalog number SC-16139) were dissolved in dimethyl sulfoxide (DMSO) to obtain 10 mM stock solutions. DMSO working solutions were prepared at 400 μM. To prepare the loading matrix, the compound working solutions (5 μL) were added in a 1:200 ratio to blank human plasma (995 μL) and mixed thoroughly.
The time zero (T0) samples to be used for recovery determination were prepared as follows: 50 μL aliquots of loading matrix were transferred in triplicate to the sample collection plate. The samples were immediately matched with opposite blank buffer (basic solution (14.2 g/L Na2HPO4 and 8.77 g/L NaCl in deionized water) titrated with acidic solution (15.6 g/L NaH2PO4·2H2O and 8.77 g/L NaCl in deionized water) to pH 7.4±0.1) to obtain a final volume of 100 μL of 1:1 matrix/dialysis buffer (v/v) in each well. 500 μL stop solution (200 ng/mL tolbutamide and 200 ng/mL labetalol in acetonitrile) were added to these TO samples. They were then stored at 2-8° C. for further processing along with other post-dialysis samples.
To load the dialysis device (96-well equilibrium dialysis plate, model 96b, catalog number 1006. HTDialysis LLC, Gales Ferry, CT, USA), an aliquot of 150 μL of the loading matrix was transferred to the donor side of each dialysis well in triplicate, and 150 μL of the dialysis buffer was loaded to the receiver side of the well. The dialysis plate was placed in a humidified incubator at 37° C. with 5% CO2 on a shaking platform that rotated slowly (about 100 rpm) for 4 hours.
At the end of the dialysis, aliquots of 50 μL of the samples were taken from both the buffer side and the matrix side of the dialysis device. These samples were transferred into new 96-well plates (polypropylene, 2.2 mL/well, catalog number DWP-22-96-SQ-U-C-L. Apricot). Each sample was mixed with an equal volume of opposite blank matrix (buffer or matrix) to reach a final volume of 100 μL of 1:1 matrix/dialysis buffer (v/v) in each well. All samples were further processed by adding 500 μL of stop solution containing internal standards. The mixture was vortexed and centrifuged at 4000 rpm for about 20 minutes. An aliquot of 100 μL of supernatant of all the samples was then removed for LC-MS/MS analysis. Test compound concentrations in matrix and buffer samples were expressed as peak area ratios (PAR) of analyte/internal standard (no standard curve).
The single blank samples were prepared by transferring 50 μL of blank matrix to a 96 well plate (polypropylene. 2.2 mL/well, catalog number DWP-22-96-SQ-U-C-L, Apricot) and adding 50 μL of blank PBS buffer to each well. The blank plasma must match the species of plasma used in the plasma side of the well. Then the matrix-matched samples were further processed by adding 500 μL of stop solution containing internal standards, following the same sample processing method as the dialysis samples. […]

[3] = Thermodynamic Solubility (Ts) Assay in Fasted State Simulated Intestinal Fluid (FaSSIF); assay type: physicochemical; details: thermodynamic from solid, FaSSIF pH 6.5, shake flask, 25° C., HPLC-UV
Method: The solubilities of various compounds of formula (I) were determined using a thermodynamic solubility assay. The thermodynamic solubility assay employed the shake flask method followed by HPLC-UV analysis. The following stepwise procedure was followed:
Samples of no less than 2.0 mg were weighed into the lower chambers of Whatman mini-uniprep vials (catalog number UN203NPUORG) and 450 μL of FaSSIF media (0.056% (w/v) lecithin, 0.161% (w/v) sodium taurocholate, 0.39% (w/v) monobasic potassium phosphate, 0.77% (w/v) potassium chloride, deionized H2O, pH 6.5) was added into each vial.
After the buffer was added, the filter pistons of the mini-uniprep vials were placed to the position of the liquid level to ensure the full contact of buffer and compound with the filter during the incubation.
The samples were then vortexed for 2 minutes, after which they were incubated at 25° C. with shaking (880 rpm) for 24 hours.
The samples were then centrifuged at 4000 rpm (20° C.) for 10 min.
The miniunipreps were then compressed to prepare filtrates, and the test concentration of the compound in the filtrate was determined using HPLC-UV (Waters XBridge C18, 4.6*100 mm column; mobile phase A: 0.1% TFA in H2O; mobile phase B: 0.1% TFA in acetonitrile). At least 5 UV standard solutions (e.g. amiodarone hydrochloride, carbamazepine, dexamethasone) were injected into the HPLC from low to high concentration subsequently followed by testing of the thermodynamic solubility supernatants in duplicate. The solubilities of the tested compounds are given in μg/mL.

full length MALT1, sequence (Q9UDY8 whole entry): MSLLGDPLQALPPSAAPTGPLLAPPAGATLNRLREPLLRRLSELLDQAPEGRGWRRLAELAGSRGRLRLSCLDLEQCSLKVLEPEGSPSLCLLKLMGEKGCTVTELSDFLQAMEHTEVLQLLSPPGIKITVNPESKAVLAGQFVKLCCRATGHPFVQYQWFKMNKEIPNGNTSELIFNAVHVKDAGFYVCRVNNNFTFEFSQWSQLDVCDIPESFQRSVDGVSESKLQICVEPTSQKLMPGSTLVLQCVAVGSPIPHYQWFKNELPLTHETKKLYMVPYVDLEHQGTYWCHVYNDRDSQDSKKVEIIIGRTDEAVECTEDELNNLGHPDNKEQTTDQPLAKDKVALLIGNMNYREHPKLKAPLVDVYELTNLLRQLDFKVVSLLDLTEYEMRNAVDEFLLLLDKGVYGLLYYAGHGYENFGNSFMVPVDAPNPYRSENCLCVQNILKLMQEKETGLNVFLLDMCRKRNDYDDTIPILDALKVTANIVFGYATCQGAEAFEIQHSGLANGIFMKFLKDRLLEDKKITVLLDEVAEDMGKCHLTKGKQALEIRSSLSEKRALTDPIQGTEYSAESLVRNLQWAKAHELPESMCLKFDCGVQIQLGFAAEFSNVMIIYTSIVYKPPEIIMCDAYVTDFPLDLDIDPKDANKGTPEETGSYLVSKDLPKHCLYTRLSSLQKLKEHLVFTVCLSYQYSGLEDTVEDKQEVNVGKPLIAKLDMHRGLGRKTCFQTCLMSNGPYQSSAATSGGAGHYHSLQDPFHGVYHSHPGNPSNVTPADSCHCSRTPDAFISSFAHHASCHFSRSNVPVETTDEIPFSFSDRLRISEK

IC50 (full length MALT1) [µM] | IC50 [1] [µM] | fraction unbound at 4 h, 2 µM [2] | solubility at 24 h [3] [mg/mL] | SMILES
0.1 to 1 | 0.1 to 1 | 0.08 to 0.2 | 0.25 to 1.75 (≈ 430 to 3010 µM) | CNC(=O)[C@H]1CC[C@H](C(=O)N(C)[C@@H](c2ccc(Nc3cnc4nc(Cl)nn4c3[C@H](C)OC)cc2)C(F)(F)F)CC1 [Compound 8.2, (1r,4S)—N1-((S)-1-(4-((2-chloro-7-((S)-1-methoxyethyl)-[1,2,4]triazolo[1,5-a]pyrimidin-6-yl)amino)phenyl)-2,2,2-trifluoroethyl)-N1,N4-dimethylcyclohexane-1,4-dicarboxamide]
0.1 to 1 | 0.1 to 1 | 0.08 to 0.2 | 0.25 to 1.75 (≈ 419 to 2940 µM) | CO[C@@H](C)c1c(Nc2ccc([C@H](N(C)C(=O)[C@H]3CC[C@H](C(=O)N(C)C)CC3)C(F)(F)F)cc2)cnc2nc(Cl)nn12 [Compound 8.3, (1r,4S)—N1-((S)-1-(4-((2-chloro-7-((S)-1-methoxyethyl)-[1,2,4]triazolo[1,5-a]pyrimidin-6-yl)amino)phenyl)-2,2,2-trifluoroethyl)-N1,N4,N4-trimethylcyclohexane-1,4-dicarboxamide]
< 0.1 | > 1 | < 0.08 | > 1.75 | CO[C@@H](C)c1c(Nc2ccc([C@H](N(C)C(=O)[C@H]3C[C@H](c4nnn[nH]4)C3)C(F)(F)F)cc2)cnc2nc(Cl)nn12 [Compound 9.1, (1r,3S)—N—((S)-1-(4-((2-chloro-7-((S)-1-methoxyethyl)-[1,2,4]triazolo[1,5-a]pyrimidin-6-yl)amino)phenyl)-2,2,2-trifluoroethyl)-N-methyl-3-(1H-tetrazol-5-yl)cyclobutane-1-carboxamide]
< 0.1 | 0.1 to 1 | 0.08 to 0.2 | 0.25 to 1.75 (≈ 440 to 3080 µM) | CO[C@H](C)c1c(Nc2ccc([C@H](N(C)C(=O)C3CCN(C(C)=O)CC3)C(F)(F)F)cc2)cnc2nc(Cl)nn12 [Compound 11.1, 1-acetyl-N—((S)-1-(4-((2-chloro-7-((R)-1-methoxyethyl)-[1,2,4]triazolo[1,5-a]pyrimidin-6-yl)amino)phenyl)-2,2,2-trifluoroethyl)-N-methylpiperidine-4-carboxamide]
